We go through 60 compounds from the METLIN SMRT retention time set (Domingo-Almenara et al. 2019).

SMILES strings stand for the structures.

The nature of this data set: gradient 5% acetonitrile 3 min, to 50% in 2 min, to 85% in 15 min, held 3 min, 100 µL/min. The note with it: column: Zorbax Extend-C18 2.1 x 50 mm; eluents: water / acetonitrile, 0.1% formic acid. Put shortly:
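Values are retention times taken from adduct peaks that software picked and an analyst inspected. The pure standards were run as mixtures of ~100 molecules on HPLC linked to a quadrupole time-of-flight mass spectrometer, in positive and negative ionization mode. A Zorbax Extend-C18 column (2.1 × 50 mm, 1.8 μm) was used at 100 μL/min with water and acetonitrile, each including 0.1% formic acid.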
`Cc1ccc(S(=O)(=O)N2CCCC(CCC(=O)N3CCCCC3)C2)cc1` (stereo not given) yielded an RP-LC retention time of 962 s.
Consider `O=C(Cc1nc(-c2ccccn2)n[nH]1)Nc1ccc(F)c(F)c1`, for which the RP-LC retention time came out at 651 s.
`O=C(C1=CN(c2ccc(Cl)c(Cl)c2)c2cc(F)ccc2S1(=O)=O)N1CCOCC1`: the RP-LC retention time amounted to 882 s.
Compound `O=C(Nc1cnc(N2CCCCC2)nc1)c1ccc(Br)o1` returned an RP-LC retention time of 927 s.
Consider `CCCOc1ccc(CN2C[C@@H](CO)[C@H](c3ccncc3)C2)cc1`, for which the RP-LC retention time is 575 s.
On to `COCCC(=O)N1CCC(Oc2nccnc2N2CCc3ccccc32)C1` (stereo not given), for which the RP-LC retention time amounted to 797 s.
Regarding `CC[C@H](C)C(=O)O[C@H]1CCC=C2C=C[C@H](C)[C@H](CC[C@@H](O)C[C@@H](O)CC(=O)O)[C@H]21`, the RP-LC retention time was 910 s.
The compound `CCc1ccccc1S(=O)(=O)N1CCC(N2CCN(Cc3ccc(C)cc3)C(=O)C2=O)CC1` had an RP-LC retention time of 955 s.
On to `O=C(c1ccsc1)N1CCC2(CC1)NC(=O)N(Cc1ccccc1)C2=O`, for which the RP-LC retention time stood at 754 s.
The compound `Cc1ccc(CNC(=O)c2cn(-c3ccc(NC(=O)C4CC4)cn3)cn2)cc1` gave an RP-LC retention time of 773 s.
The value for `CCOc1cccc(-c2noc(Cc3nnc(-c4ccccc4)o3)n2)c1` was 1060 s.
Compound `O=C(Cn1cnc2nc(N3CCCC(C(=O)NC4CC4)C3)sc2c1=O)Nc1ccc(F)cc1` (stereo not given) came in with an RP-LC retention time of 672 s.
In turn, `O=C(c1ccc(-c2noc(C3CC3)n2)cc1)N1CCN(c2nc3cccnc3o2)CC1` returned an RP-LC retention time of 793 s.
`O=C(Cc1csc2nc(-c3ccccc3)cn12)Nc1ccc(F)cc1F` had an RP-LC retention time of 809 s.
The value for `O=C(Cn1c(=O)cc(C(=O)N2CCCCC2)c2ccccc21)NC1CCCC1` was 697 s.
For the compound `Cc1nc2nc3c(cn2n1)C(=O)CCC3`, the RP-LC retention time was 593 s.
The value for `Cc1ncc2c(n1)C[C@@H]1CC[C@H]2N1C(=O)Nc1ccc(F)cc1F` was 649 s; that for `NC(=O)c1ccccc1NC(=O)CCCn1cnc(-c2ccc(F)cc2)cc1=O` was 666 s.
`O=C(NCCC1=CCCCC1)C(=O)NCCN1CCN(c2ccc(F)cc2)CC1` yielded an RP-LC retention time of 633 s.
`CCOCC(=O)Nc1c(C)nc2ccc(Cl)cn2c1=O` registered an RP-LC retention time of 583 s.
The compound `CC(C)OCCCNC(=O)c1ccc2c(c1)nc1n2CCCCC1` had an RP-LC retention time of 606 s.
Consider `O=C(Cc1ccccc1Cl)Nc1cnc(N2CCCC2)nc1`, for which the RP-LC retention time was 604 s.
Consider `CCOc1ccc(NC(=O)CCSc2nnc(C)s2)cc1`, for which the RP-LC retention time was 709 s.
Consider `Cc1ccc(-c2coc3cc4oc(=O)c(CC(=O)N5CCC(C(N)=O)CC5)c(C)c4cc23)cc1`, for which the RP-LC retention time was 813 s.
`CCc1ccc(-c2noc(Cn3c(=O)n(-c4cccc(OC)c4)c(=O)c4sccc43)n2)cc1`: the RP-LC retention time was 1060 s.
Consider `Cc1cccc(Sc2nccnc2N2CCCC(C(=O)N3CCN(c4ccccc4F)CC3)C2)c1` (stereo not given), for which the RP-LC retention time amounted to 1280 s.
The value for `COc1ccc(N2C(=O)N[C@H]3C[C@@]2(C)Oc2c(OC)cccc23)c(OC)c1` was 712 s.
Take `COc1ccccc1-c1noc(Cn2c(=O)n(C(C)C)c(=O)c3ccccc32)n1`: the RP-LC retention time worked out at 994 s.
Compound `Cc1cc(C)cc(NC(=O)C(C)C2CCN(C(=O)Nc3ccc(F)cc3)CC2)c1` (stereo not given) yielded an RP-LC retention time of 917 s.
Compound `CCCC(=O)Nc1ccc2c(c1)CN(C(=O)c1cccc(Cl)c1)C(C(=O)N(C)C)C2` (stereo not given) yielded an RP-LC retention time of 759 s.
Consider `COc1ccc(NC(=O)NC2CCN(c3ccc(F)cc3)C2=O)cc1F` (stereo not given), for which the RP-LC retention time is 781 s.
`Cc1cc2nc(-c3ccccn3)c(-c3ccccn3)nc2cc1C` yielded an RP-LC retention time of 797 s.
The result for `CC(C)(Cc1c[nH]c2ccccc12)NCC(O)COc1ccccc1C#N` (stereo not given) reads 757 s; that for `COCc1cc(=O)n2c(n1)N(Cc1ccccc1F)CC2`, 660 s; that for `Cc1ccc(CNC(=O)c2cc(C)n3nc(-c4ccccn4)cc3n2)cc1`, 924 s.
`CC(C)(C)c1ccc(C(=O)N2CCC3(CC2)N=C(c2ccccc2)NO3)cc1` came in with an RP-LC retention time of 991 s.
Consider `O=c1n(Cc2cc(F)cc(F)c2)nc2c(S(=O)(=O)N3CCOCC3)cccn12`, for which the RP-LC retention time is 743 s.
Regarding `O=C(NCc1cccs1)c1cnn2c(-c3ccc(Cl)cc3)ccnc12`, the RP-LC retention time was 983 s.
`O=C(C1CCCN(c2cnc3nccnc3c2)C1)N1CCC(Cc2ccccc2)CC1` (stereo not given): the RP-LC retention time is 892 s.
`CCC(C)(C)C(=O)NC1CCN(c2cnn(CC3CC3)c(=O)c2)CC1`: the RP-LC retention time is 664 s.
Compound `O=C(COc1ccccc1)Nc1cnc(N2CCOCC2)nc1` displayed an RP-LC retention time of 746 s.
The value for `O=c1n(Cc2ccccc2)nc2n1CCN(S(=O)(=O)Cc1ccccc1)CC2` was 816 s; that for `CC(C)Cn1c(=O)c(C(=O)NCc2ccc(C(F)(F)F)cc2)nc2cccnc21` was 1050 s; that for `CC1=C(c2ccccc2)S(=O)(=O)N=C1N1CCCN(C(=O)COc2ccccc2)CC1` was 836 s.
For `CCn1ccc2cc(S(=O)(=O)N3CCCC(C(=O)NCCN4CCCCC4)C3)ccc21` (stereo not given), the RP-LC retention time came out at 668 s.
Turning to `O=C(CSc1ccc(F)cc1)Nc1cccc2ccc(-n3ccnc3)nc12`, the RP-LC retention time worked out at 659 s.
The compound `Cc1cc(S(=O)(=O)N2CC(c3nc(-c4ccccc4)nn3C)C2)ccc1F` gave an RP-LC retention time of 602 s.
The value for `CCOC(=O)C1CCCN(C(=O)Cc2c(C(=O)O)c(C)cn2CC)C1` (stereo not given) was 727 s; that for `CCOCCCNC(=O)c1cc2sc(Cl)cc2n1C` was 939 s; that for `CCOc1ccc(Nc2c(-c3nc(C)no3)cnc3nc(C)ccc23)cc1` was 778 s.
`CCCCOc1ccc(NC(=O)c2oc3ccc(F)cc3c2C)c2cccnc12` yielded an RP-LC retention time of 850 s.
The result for `Cc1cc(OCC(=O)Nc2cccc(Br)c2)nc(N2CCCC2)n1` reads 682 s; that for `CCn1ccc(NC(=O)c2cc(C)ccc2C)n1`, 733 s; that for `CC(=O)c1c(N(C)CCO)nc2ccc(Cl)cc2c1-c1ccccc1`, 834 s.
The compound `COc1ccc2ncc(C#N)c(Nc3cc(OC)c(OC)c(OC)c3)c2c1` yielded an RP-LC retention time of 626 s.
The compound `CCOc1ccc(NC(=O)N2CCCC(Cn3c(C4CC4)nc4cccnc43)C2)cc1` (stereo not given) yielded an RP-LC retention time of 689 s.
`COc1cccc(-c2nc(-c3ccc(S(=O)(=O)N4CCCC4)cc3)no2)c1`: the RP-LC retention time turned out to be 1180 s.
As for `COc1ccc(-c2nc(-c3nnn(-c4ccccc4)c3C)no2)cc1OC`, the RP-LC retention time turned out to be 892 s.
`CCc1nncn1C1CCN(C(=O)c2cc(C)cc(C)c2)CC1` yielded an RP-LC retention time of 655 s.
Consider `COc1ccc(OC)c(NC(=O)Cn2nc3c4ccc(Cl)cc4ncn3c2=O)c1`, for which the RP-LC retention time turned out to be 740 s.
